Measurements: US20200138855A1, “NOVEL ANTINEOPLASTIC DRUG BASED ON SPECIFICITY OF CANCER-CELL METABOLISM” (priority 2017, published 2020)
Structures can show the parent of a compound that is named as a salt.

Assays:
[1] = test system: recurrent pancreatic cancer (pancreatic body cancer) (Stage IVa); assay: Example 2: case of recurrent pancreatic cancer (pancreatic body cancer); assay type: in vivo, human
Excerpt: Patient with recurrent pancreatic cancer (pancreatic body cancer) (Stage IVa)
The patient also had diabetes.

[2] = test system: colorectal cancer cells having a mutation in KRAS gene and BRAF gene; conditions: contact with high-concentration vitamin C; cited from earlier work
[3] = test system: human lung cancer cells; conditions: pHi of human lung cancer cells rises from 7.0 to 7.4; cited from earlier work
[4] = test system: pancreatic cancer; conditions: diabetic patients taking metformin versus those taking no metformin; cited from earlier work

With `Nc1ccn([C@@H]2O[C@H](CO)[C@@H](O)C2(F)F)c(=O)n1` [Gemzar, gemcitabine] the “level of tumor marker (CA19-9)” value ([1]; Gemzar 800 mg/m^2 every other week alone (Oct-Dec 2016), combination from mid February 2017 (NaHCO3 3 g/day, vitamin C 25 g/day once a week, metformin hydrochloride 250 mg/day)) was “significantly increased” and the MRI inspection ([1]; middle of December 2016, Gemzar 800 mg/m^2 every other week alone) was “suspected to have peritoneal dissemination”.

For `O=C1O[C@H]([C@@H](O)CO)C(O)=C1O` [vitamin C, L-ascorbic acid], the “effect on the cells” value [2] is listed as “killed”.

For `COc1cccc2c1C(=O)c1c(O)c3c(c(O)c1C2=O)C[C@@](O)(C(=O)CO)C[C@@H]3O[C@H]1C[C@H](N)[C@H](O)[C@H](C)O1` [doxorubicin hydrochloride], the “increase of resistance to the anti-cancer agent” value [3] is given as 2,000 times.

For `CN(C)C(=N)NC(=N)N` [metformin], the “reduction of risk of development of pancreatic cancer” value [4] is given as 62%.
